{"source": "patent US12257216B2", "about": "“Treatment for hot flushes” (Dignity Health, priority 2017, dated 2025)", "key": {"ovariectomized rats [1]": {"test_system": "ovariectomized rats", "assay": "internal warming-induced cessation of warm sucrose intake test (sucrose intake cessation test)", "format": "in vivo, rat", "details": "Experiment 4, SB366791 10 mg/kg by oral gavage 20 min prior to heat exposure (32.5° C., 10 min), vs OVX Vehicle+Vehicle", "method": "Experiments were performed in adult female Wistar rats (Envigo) weighting 240-280 g at the day of the first surgery (Day 0). Rats were housed three per cage in standard “show boxes”. The room was maintained on a 12:12 h light-dark cycle (lights-on at 6 AM) at 24±2° C. All protocols were approved by the Institutional Animal Care and Use Committee. On Day 0, each rat was subjected to a bilateral ovariectomy or sham surgery, either with or without simultaneous implantation of a miniature data logger into the peritoneal cavity for body temperature measurement. On Day 7, the ovariectomized rats were implanted subcutaneously with a capsule containing either estradiol or vehicle, and the sham-operated rats were implanted with a capsule containing vehicle. On Days 6-15, the rats were habituated to experimental setups and procedures. […] Each burette was fitted with a stainless steel spout and filled with a 0.3 M sucrose solution at either 27 or 40° C., and sucrose solution consumption was recorded for 15 min. […] All data arc expressed as mean±SE. The preferred ambient temperature and sucrose intake data analyzed by a two-way repeated-measurements ANOVA, followed by the Fisher or Newman-Keuls multiple comparisons test, as appropriate. The uterus mass data were analyzed by a one-way ANOVA followed by the Fisher test. […]"}, "ovariectomized rats [2]": {"test_system": "ovariectomized rats", "assay": "ambient warming-induced cold-seeking test in a thermogradient apparatus", "format": "in vivo, rat", "details": "vs OVX Vehicle+Vehicle", "method": "Experiments were performed in adult female Wistar rats (Envigo) weighting 240-280 g at the day of the first surgery (Day 0). Rats were housed three per cage in standard “show boxes”. The room was maintained on a 12:12 h light-dark cycle (lights-on at 6 AM) at 24±2° C. All protocols were approved by the Institutional Animal Care and Use Committee.\nOn Day 0, each rat was subjected to a bilateral ovariectomy or sham surgery, either with or without simultaneous implantation of a miniature data logger into the peritoneal cavity for body temperature measurement. On Day 7, the ovariectomized rats were implanted subcutaneously with a capsule containing either estradiol or vehicle, and the sham-operated rats were implanted with a capsule containing vehicle. On Days 6-15, the rats were habituated to experimental setups and procedures. The rats were taken into experiments between Days 16 and 20 (Experiments 1-3) or on Days 13 and 20 (Experiment 4); each rat was used in two experiments. Thermal discomfort was studied in one of two tests: the ambient warming-induced cold-seeking test in a thermogradient apparatus (cold-seeking test; Experiments 1-3) or the internal warming-induced cessation of warm sucrose intake test (sucrose intake cessation test; Experiment 4). Some ovariectomized rats were treated with a TRPV1. antagonist (capsazepine, Al 165442, or SB366791) or vehicle prior to a test. After experiments (Day 21), each rat used in Experiments 1-3 was euthanized, and the uterus was removed and weighed to confirm the completeness of the ovariectomy and the effectiveness of the estradiol replacement procedure.\nThe goal of Experiment 1 was to determine whether ovariectomy facilitates the cold-seeking behavior after heat exposure, and whether this facilitation (if it occurs) is estradiol-dependent. […]\nCold-seeking test. […] The preferred ambient temperature was recorded for 10 min. […]"}, "ovariectomized rats [3]": {"test_system": "ovariectomized rats", "assay": "uterus mass after ovariectomy and estradiol replacement", "format": "in vivo, rat", "details": "Experiment 1; ovariectomized rats with estradiol replacement; mean±SE; Day 21", "excerpt": "On Day 0, each rat was subjected to a bilateral ovariectomy or sham surgery, either with or without simultaneous implantation of a miniature data logger into the peritoneal cavity for body temperature measurement. On Day 7, the ovariectomized rats were implanted subcutaneously with a capsule containing either estradiol or vehicle, and the sham-operated rats were implanted with a capsule containing vehicle. On Days 6-15, the rats were habituated to experimental setups and procedures. The rats were taken into experiments between Days 16 and 20 (Experiments 1-3) or on Days 13 and 20 (Experiment 4); each rat was used in two experiments. Thermal discomfort was studied in one of two tests: the ambient warming-induced cold-seeking test in a thermogradient apparatus (cold-seeking test; Experiments 1-3) or the internal warming-induced cessation of warm sucrose intake test (sucrose intake cessation test; Experiment 4). Some ovariectomized rats were treated with a TRPV1. antagonist (capsazepine, Al 165442, or SB366791) or vehicle prior to a test. […] All data arc expressed as mean±SE. The preferred ambient temperature and sucrose intake data analyzed by a two-way repeated-measurements ANOVA, followed by the Fisher or Newman-Keuls multiple comparisons test, as appropriate. The uterus mass data were analyzed by a one-way ANOVA followed by the Fisher test. […]"}, "TRPV1": {"biological_target": "TRPV1 (Homo sapiens, UniProt Q8NER1)", "sequence (Q8NER1 whole entry, species assumed)": "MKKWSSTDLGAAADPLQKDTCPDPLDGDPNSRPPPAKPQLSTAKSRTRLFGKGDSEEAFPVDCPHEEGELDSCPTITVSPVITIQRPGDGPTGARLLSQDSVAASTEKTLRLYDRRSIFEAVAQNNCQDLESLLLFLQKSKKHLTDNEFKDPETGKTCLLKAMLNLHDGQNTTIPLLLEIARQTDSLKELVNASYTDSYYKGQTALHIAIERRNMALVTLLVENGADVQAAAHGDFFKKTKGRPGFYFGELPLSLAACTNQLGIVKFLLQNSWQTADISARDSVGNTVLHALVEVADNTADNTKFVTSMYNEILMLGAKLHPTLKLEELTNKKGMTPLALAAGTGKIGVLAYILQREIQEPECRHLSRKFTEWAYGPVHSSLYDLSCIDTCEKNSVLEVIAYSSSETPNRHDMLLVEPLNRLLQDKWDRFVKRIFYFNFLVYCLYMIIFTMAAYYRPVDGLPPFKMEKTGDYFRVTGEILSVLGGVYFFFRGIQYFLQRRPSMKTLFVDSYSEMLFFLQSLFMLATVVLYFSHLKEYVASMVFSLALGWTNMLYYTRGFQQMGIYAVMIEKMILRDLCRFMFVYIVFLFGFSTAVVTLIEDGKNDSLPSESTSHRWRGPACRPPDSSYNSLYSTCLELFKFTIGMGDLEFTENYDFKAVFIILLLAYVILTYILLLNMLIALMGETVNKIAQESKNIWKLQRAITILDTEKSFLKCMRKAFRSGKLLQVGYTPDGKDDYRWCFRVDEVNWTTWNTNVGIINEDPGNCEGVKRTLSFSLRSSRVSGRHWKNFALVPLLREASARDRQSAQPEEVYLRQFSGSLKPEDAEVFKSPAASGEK", "details": "cited from earlier work"}, "[4]": {"details": "as supported by animal studies; cited from earlier work"}}, "note": "Entries after “also recorded” stand apart in the source; their conditions may differ.", "data": [{"smiles": "COc1cccc(NC(=O)/C=C/c2ccc(Cl)cc2)c1", "note": "[SB366791]", "values": [{"measurement": "cumulative intake of warm (40° C.) sucrose solution (avoidance of internal warming)", "setting": "ovariectomized rats [1]", "result": "attenuated; also recorded: treat this thermal discomfort; also recorded: significant difference"}]}, {"smiles": "Cc1cc2c(NC(=O)N[C@@H]3CC(CF)(CF)Oc4cc(Cl)ccc43)cccc2cn1", "note": "[A1165442]", "values": [{"measurement": "heat exposure-induced cold-seeking behavior (preferred ambient temperature)", "setting": "ovariectomized rats [2]; Experiment 3, A1165442 100 mg/kg by oral gavage prior to 10-min mild heat exposure (31° C.), 100 mg/kg", "result": "strongly attenuated; also recorded: treat this thermal discomfort; also recorded: significant difference"}]}, {"smiles": "C[C@]12CC[C@@H]3c4ccc(O)cc4CC[C@H]3[C@@H]1CC[C@@H]2O", "note": "[Estradiol, estradiol]", "values": [{"measurement": "uterus mass", "setting": "ovariectomized rats [3]", "result": "0.42 ± 0.02", "unit": "g"}]}, {"smiles": "Oc1cc2c(cc1O)CN(C(=S)NCCc1ccc(Cl)cc1)CCC2", "note": "[capsazepine]", "values": [{"measurement": "heat exposure-induced cold-seeking behavior (preferred ambient temperature)", "setting": "ovariectomized rats [2]; Experiment 2, capsazepine 40 mg/kg by oral gavage 30 min prior to 10-min mild heat exposure (31° C.)", "result": "strongly attenuated; also recorded: treat this thermal discomfort"}, {"measurement": "heat exposure-induced cold-seeking behavior (preferred ambient temperature)", "setting": "ovariectomized rats [2]; Experiment 2, capsazepine 40 mg/kg by oral gavage 30 min prior to 10-min mild heat exposure (31° C.), listed as Capsazepine", "result": "significant difference"}]}, {"smiles": "FC(F)(F)c1ccc(-c2cc(Nc3ccc4ncsc4c3)ncn2)c(NCC2CCCCC2)c1", "note": "[AMG7905]", "values": [{"measurement": "effect on activation of TRPV1 by protons", "setting": "TRPV1", "result": "potentiate the activation of TRPV1 by protons"}, {"measurement": "effect on body temperature", "setting": "[4]", "result": "cause hypothermia"}]}]}
